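Grown in 96-well plates, cells were treated for 48 hours with each compound at five concentrations. Insufficient inhibition: endpoint recorded as highest concentration tested. Definition used: TGI = concentration required for complete inhibition of growth.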
Columns and labels:
Assay in all cases: NCI-60 cell line screen, 48 h
NCI-H23 lung = test system: NCI-H23 lung
MDA-MB-231 breast = test system: MDA-MB-231 breast
SNB-75 CNS = test system: SNB-75 CNS
TK-10 renal = test system: TK-10 renal
NCI-H522 lung = test system: NCI-H522 lung
RPMI-8226 leukemia = test system: RPMI-8226 leukemia
U251 CNS = test system: U251 CNS
MALME-3M melanoma = test system: MALME-3M melanoma
OVCAR-5 ovarian = test system: OVCAR-5 ovarian
T-47D breast = test system: T-47D breast
SF-268 CNS = test system: SF-268 CNS
SNB-19 CNS = test system: SNB-19 CNS
UACC-62 melanoma = test system: UACC-62 melanoma
RXF 393 renal = test system: RXF 393 renal
MDA-MB-435 = test system: MDA-MB-435
IGROV1 ovarian = test system: IGROV1 ovarian
UO-31 renal = test system: UO-31 renal
CCRF-CEM leukemia = test system: CCRF-CEM leukemia
HL-60(TB) leukemia = test system: HL-60(TB) leukemia

| Compound | TGI (NCI-H23 lung) [µM] | TGI (MDA-MB-231 breast) [µM] | TGI (SNB-75 CNS) [µM] | TGI (TK-10 renal) [µM] | TGI (NCI-H522 lung) [µM] | TGI (RPMI-8226 leukemia) [µM] | TGI (U251 CNS) [µM] | TGI (MALME-3M melanoma) [µM] | TGI (OVCAR-5 ovarian) [µM] | TGI (T-47D breast) [µM] | TGI (SF-268 CNS) [µM] | TGI (SNB-19 CNS) [µM] | TGI (UACC-62 melanoma) [µM] | TGI (RXF 393 renal) [µM] | TGI (MDA-MB-435) [µM] | TGI (IGROV1 ovarian) [µM] | TGI (UO-31 renal) [µM] | TGI (CCRF-CEM leukemia) [µM] | TGI (HL-60(TB) leukemia) [µM] |
| --- | --- | --- | --- | --- | --- | --- | --- | --- | --- | --- | --- | --- | --- | --- | --- | --- | --- | --- | --- |
| Cc1cc(S(=O)(=O)NC2=NC(c3ccccc3)c3ccccc3N2)c(S)cc1Cl (stereo not drawn) | > 100 | > 100 | > 100 | > 100 | > 100 | > 100 | > 100 | > 100 | > 100 | > 100 | > 100 | > 100 | > 100 | > 100 | > 100 | > 100 | 46.5 | > 100 | > 100 |
| CO[C@@H]1C=C[C@@]23c4cc5c(cc4C(O)N(CC2O)C3C1)OCO5 (stereo partly drawn) | 56.1 | 21.8 | 6.92 | 23 | > 100 | > 100 | 16.6 | > 100 | 79.3 | 8.01 | > 100 | 33.8 | 20.4 | 50.3 | 18.2 | 68.9 | 36.8 | 5.38 | 5.64 |
| N#Cc1c(C#N)c(-c2ccco2)n(-c2ccccc2)c1N | > 100 | > 100 | 84.4 | > 100 | > 100 | > 100 | > 100 | > 100 | > 100 | > 100 | > 100 | > 100 | > 100 | > 100 | > 100 | > 100 | > 100 | > 100 | > 100 |
| CC(C)(C)OC(=O)NC(Cc1ccc(OCc2ccccc2)cn1)C(=O)NCc1ccccc1 (stereo not drawn) | 47.3 | 75.1 | 78.5 | > 100 | 47.1 | 44.9 | > 100 | 65.7 | > 100 | 56.5 | 75 | > 100 | 32.5 | > 100 | 48.1 | > 100 | 82.9 | 43.5 | 33.7 |
| Nc1nc(Cl)cc(NCC2(CO)CCC(O)C2)n1 (stereo not drawn) | > 100 | > 100 | > 100 | > 100 | > 100 | > 100 | > 100 | > 100 | > 100 | > 100 | > 100 | > 100 | > 100 | > 100 | > 100 | > 100 | > 100 | > 100 | > 100 |
| O=C(O)Cc1cccc2c1OC(c1ccccc1)C(C(=O)c1ccccc1)C2=O (stereo not drawn) | > 100 | > 100 | 51.3 | 79.9 | > 100 | > 100 | > 100 | > 100 | > 100 | 56.9 | > 100 | > 100 | 48.7 | > 100 | > 100 | > 100 | > 100 | > 100 | 50.9 |
| CN(C)c1nc(=NCc2cccs2)ss1 | > 10 | > 10 | > 10 | > 10 | 9.57 | > 10 | > 10 | > 10 | > 10 | > 10 | > 10 | > 10 | > 10 | > 10 | > 10 | > 10 | > 10 | 1.83 | 2.16 |

Source: PubChem BioAssay (NCI)
